Earlier results as cited in patent US20230120480A1, “METHODS FOR REMOVING CONTAMINANTS FROM PLANT-DERIVED PHARMACEUTICALS” (priority 2021, published 2023).

Details: not given

Row | Molecule | Water Soluble?
1 | CCCCCc1cc(O)c2c(c1)OC(C)(C)[C@H]1CCC(C)=C[C@@H]21 (relative stereo) [Delta-9-cis-tetrahydrocannabinol] | No
2 | CCCCCc1cc(O)c2c(c1)OC(C)(C)C1=C2CC(C)(O)C(O)C1 (centres unmarked) [8,9-Dihydroxy-delta-6a-tetrahydrocannabinol] | No
3 | CCCCCc1cc(O)c2c(c1)OC(C)(C)C1=C2C(OCC)C(C)(O)CC1 (centres unmarked) [10-Ethoxy-9-hydroxy-delta-6a-tetrahydrocannabinol] | No
4 | CCCCCc1cc(O)c2c(c1)OC(C)(C)C1=C2C(=O)C(C)CC1 (centres unmarked) [10-Oxo-delta-6a-tetrahydrocannabinol] | No
5 | CCCCCc1cc(O)c2c(c1)OC(C)(C)[C@H](CCC(C)=O)C2=O [Cannabichromanon] | No
6 | CCCCCc1cc(O)c2c(c1)OC(C)(CCC=C(C)C)C=C2 (centres unmarked) [Cannabichromene] | No
7 | CCCCCc1cc2c(c(O)c1C(=O)O)C=CC(C)(CCC=C(C)C)O2 (centres unmarked) [Cannabichromenic acid] | Yes
8 | CCCc1cc(O)c2c(c1)OC(C)(CCC=C(C)C)C=C2 (centres unmarked) [Cannabichromevarin] | No
9 | CCCc1cc2c(c(O)c1C(=O)O)C=CC(C)(CCC=C(C)C)O2 (centres unmarked) [Cannabichromevarinic acid] | No
10 | CCCCCc1cc(O)c2c(c1)OC1(C)CCC3C1C2C3(C)C (centres unmarked) [Cannabicyclol] | No
11 | CCCCCc1cc2c(c(O)c1C(=O)O)C1C3C(CCC3(C)O2)C1(C)C (centres unmarked) [Cannabicyclolic acid] | Yes
12 | CCCc1cc(O)c2c(c1)OC1(C)CCC3C1C2C3(C)C (centres unmarked) [Cannabicyclovarin] | No
13 | C=C(C)[C@@H]1CCC(C)=C[C@H]1c1c(O)cc(CCCCC)cc1OC [Cannabidiol monomethylether] | No
14 | C=C(C)[C@@H]1CCC(C)=C[C@H]1c1c(O)cc(CCCCC)cc1O [Cannabidiol, reference compound] | No
15 | C=C(C)[C@@H]1CCC(C)=C[C@H]1c1c(O)cc(CCCCC)c(C(=O)O)c1O [Cannabidiolic acid] | No
16 | C=C(C)[C@@H]1CCC(C)=C[C@H]1c1c(O)cc(C)cc1O [Cannabidiorcol] | No
17 | C=C(C)[C@@H]1CCC(C)=C[C@H]1c1c(O)cc(CCC)cc1O [Cannabidivarin] | No

Row | Molecule | Water Soluble?
18 | C=C(C)[C@@H]1CCC(C)=C[C@H]1c1c(O)cc(CCC)c(C(=O)O)c1O [Cannabidivarinic acid] | Yes
19 | C=C(C)[C@@H]1CC[C@](C)(O)[C@H]2Oc3c(C(=O)O)c(CCCCC)cc(O)c3[C@@H]12 [Cannabielsoic acid B] | No
20 | C=C(C)[C@@H]1CC[C@](C)(O)[C@H]2Oc3cc(CCCCC)c(C(=O)O)c(O)c3[C@@H]12 [Cannabielsoin acid A] | No
21 | C=C(C)[C@@H]1CC[C@](C)(O)[C@H]2Oc3cc(CCCCC)cc(O)c3[C@@H]12 [Cannabielsoin] | No
22 | CCCCCc1cc(O)c(C/C=C(\C)CCC=C(C)C)c(OC)c1 [Cannabigerol monomethylether] | No
23 | CCCCCc1cc(O)c(C/C=C(\C)CCC=C(C)C)c(O)c1 [Cannabigerol] | No
24 | CCCCCc1cc(OC)c(C/C=C(\C)CCC=C(C)C)c(O)c1C(=O)O [Cannabigerolic acid monomethylether] | Yes
25 | CCCCCc1cc(O)c(C/C=C(\C)CCC=C(C)C)c(O)c1C(=O)O [Cannabigerolic acid] | Yes
26 | CCCc1cc(O)c(C/C=C(\C)CCC=C(C)C)c(O)c1 [Cannabigerovarin] | No
27 | CCCc1cc(O)c(C/C=C(\C)CCC=C(C)C)c(O)c1C(=O)O [Cannabigerovarinic acid] | Yes
28 | CCCc1cc(O)c2c(c1)OC1(C)CCC(C(C)(C)O)C2C1 (centres unmarked) [Cannabiglendol] | No
29 | C=C(C)c1ccc(C)cc1-c1c(O)cc(CCCCC)cc1O [Cannabinodiol] | No
30 | C=C(C)c1ccc(C)cc1-c1c(O)cc(CCC)cc1O [Cannabinodivarin] | No
31 | CCCCCc1cc(OC)c2c(c1)OC(C)(C)c1ccc(C)cc1-2 [Cannabinol methylether] | No
32 | CCc1cc(O)c2c(c1)OC(C)(C)c1ccc(C)cc1-2 [Cannabinol-C2] | No
33 | CCCCc1cc(O)c2c(c1)OC(C)(C)c1ccc(C)cc1-2 [Cannabinol-C4] | No
34 | CCCCCc1cc2c(c(O)c1C(=O)O)-c1cc(C)ccc1C(C)(C)O2 [Cannabinolic acid] | Yes

Details: permissible limit of the pesticide in Cannabis, State of Oregon

Row | Molecule | Action Level (ppm)
35 | Cc1c(COC(=O)[C@@H]2[C@H](/C=C(\Cl)C(F)(F)F)C2(C)C)cccc1-c1ccccc1 (racemic) [Bifenthrin] | 0.2
36 | COP(=O)(NC(C)=O)SC (centres unmarked) [Acephate] | 0.4
37 | CCCCCCCCCCCCC1=C(OC(C)=O)C(=O)c2ccccc2C1=O [Acequinocyl] | 2
38 | C/C(=N\C#N)N(C)Cc1ccc(Cl)nc1 [Acetamiprid] | 0.2
39 | CNC(=O)O/N=C/C(C)(C)SC [Aldicarb] | 0.4
40 | CO/C=C(/C(=O)OC)c1ccccc1Oc1cc(Oc2ccccc2C#N)ncn1 [Azoxystrobin] | 0.2
41 | COc1ccc(-c2ccccc2)cc1NNC(=O)OC(C)C [Bifenazate] | 0.2
42 | O=C(Nc1ccccc1-c1ccc(Cl)cc1)c1cccnc1Cl [Boscalid] | 0.4
43 | CNC(=O)Oc1cccc2ccccc12 [Carbaryl] | 0.2
44 | CNC(=O)Oc1cccc2c1OC(C)(C)C2 [Carbofuran] | 0.2
45 | CNC(=O)c1cc(Cl)cc(C)c1NC(=O)c1cc(Br)nn1-c1ncccc1Cl [Chlorantranili- prole] | 0.2
46 | CCOCn1c(-c2ccc(Cl)cc2)c(C#N)c(Br)c1C(F)(F)F [Chlorfenapyr] | 1
47 | CC1(C)C(C=C(Cl)Cl)C1C(=O)OC(C#N)c1ccc(F)c(Oc2ccccc2)c1 (centres unmarked) [Cyfluthrin] | 1
48 | COP(=O)(OC)OC=C(Cl)Cl [DDVP (Dichlorvos)] | 0.1
49 | CCOP(=S)(OCC)Oc1cc(C)nc(C(C)C)n1 [Diazinon] | 0.2
50 | CNC(=O)CSP(=S)(OC)OC [Dimethoate] | 0.2
51 | CCOc1ccc(C(C)(C)COCc2cccc(Oc3ccccc3)c2)cc1 [Etofenprox] | 0.4
52 | CCOc1cc(C(C)(C)C)ccc1C1COC(c2c(F)cccc2F)=N1 (centres unmarked) [Etoxazole] | 0.2
53 | CCOC(=O)NCCOc1ccc(Oc2ccccc2)cc1 [Fenoxycarb] | 0.2
54 | Cc1nn(C)c(Oc2ccccc2)c1/C=N/OCc1ccc(C(=O)OC(C)(C)C)cc1 [Fenpyroximate] | 0.4
55 | N#Cc1nn(-c2c(Cl)cc(C(F)(F)F)cc2Cl)c(N)c1[S+]([O-])C(F)(F)F (centres unmarked) [Fipronil] | 0.4
56 | N#CCNC(=O)c1cnccc1C(F)(F)F [Flonicamid] | 1
57 | N#Cc1c[nH]cc1-c1cccc2c1OC(F)(F)O2 [Fludioxonil] | 0.4
58 | CC1C(c2ccc(Cl)cc2)SC(=O)N1C(=O)NC1CCCCC1 (centres unmarked) [Hexythiazox] | 1
59 | C=CCOC(Cn1ccnc1)c1ccc(Cl)cc1Cl (centres unmarked) [Imazalil] | 0.2
60 | O=[N+]([O-])NC1=NCCN1Cc1ccc(Cl)nc1 [Imidacloprid] | 0.4

Row | Molecule | Action Level (ppm)
61 | CO/N=C(/C(=O)OC)c1ccccc1COc1ccccc1C [Kresoxim- methyl] | 0.4
62 | CCCCC(CC)CN1C(=O)C2C3C=CC(C3)C2C1=O (centres unmarked) [MGK-264] | 0.2
63 | CCOC(=O)CC(SP(=S)(OC)OC)C(=O)OCC (centres unmarked) [Malathion] | 0.2
64 | COCC(=O)N(c1c(C)cccc1C)C(C)C(=O)OC (centres unmarked) [Metalaxyl] | 0.2
65 | CNC(=O)Oc1cc(C)c(SC)c(C)c1 [Methiocarb] | 0.2
66 | CNC(=O)ON=C(C)SC [Methomyl] | 0.4
67 | CCCCC(C#N)(Cn1cncn1)c1ccc(Cl)cc1 (centres unmarked) [Myclobutanil] | 0.2
68 | COP(=O)(OC)OC(Br)C(Cl)(Cl)Br (centres unmarked) [Naled] | 0.5
69 | CNC(=O)O/N=C(\SC)C(=O)N(C)C [Oxamyl] | 1
70 | CC(C)(C)C(O)C(Cc1ccc(Cl)cc1)n1cncn1 (centres unmarked) [Paclobutrazol] | 0.4
71 | CC1(C)C(C=C(Cl)Cl)C1C(=O)OCc1cccc(Oc2ccccc2)c1 (centres unmarked) [Permethrins] | 0.2
72 | COP(=S)(OC)SCN1C(=O)c2ccccc2C1=O [Phosmet] | 0.2
73 | C#CCC1=C(C)C(OC(=O)[C@@H]2[C@@H](C=C(C)C)C2(C)C)CC1=O (some centres unmarked) [Prallethrin] | 0.2
74 | CCCC1COC(Cn2cncn2)(c2ccc(Cl)cc2Cl)O1 (centres unmarked) [Propiconazole] | 0.4
75 | CNC(=O)Oc1ccccc1OC(C)C [Propoxur] | 0.2
76 | CC(C)(C)c1ccc(CSc2cnn(C(C)(C)C)c(=O)c2Cl)cc1 [Pyridaben] | 0.2
77 | Cc1cc(C)c(C2=C(OC(=O)CC(C)(C)C)C3(CCCC3)OC2=O)c(C)c1 [Spiromesifen] | 0.2
78 | CCOC(=O)OC1=C(c2cc(C)ccc2C)C(=O)N[C@]12CC[C@@H](OC)CC2 [Spirotetramat] | 0.2
79 | CCCN(CC)CC1COC2(CCC(C(C)(C)C)CC2)O1 (centres unmarked) [Spiroxamine] | 0.4
80 | CC(C)(C)C(O)(CCc1ccc(Cl)cc1)Cn1cncn1 (centres unmarked) [Tebuconazole] | 0.4
81 | N#C/N=C1\SCCN1Cc1ccc(Cl)nc1 [Thiacloprid] | 0.2
82 | CN1COCN(Cc2cnc(Cl)s2)/C1=N\[N+](=O)[O-] [Thiamethoxam] | 0.2
83 | CO/N=C(/C(=O)OC)c1ccccc1CO/N=C(\C)c1cccc(C(F)(F)F)c1 [Trifloxystrobin] | 0.2
84 | Abamectin | 0.5
85 | Pyrethrins | 1
86 | Spinosad | 0.2
